Test [1] in a line: Inhibition of hedgehog pathway in mouse Shh Light II cells transfected with Renilla luciferase and firefly luciferase incubated for 48 hrs by dual luciferase reporter gene assay. Format: cell-based. (A reporter such as luciferase makes a cellular process visible.)
Test [2] addresses Protein smoothened (Homo sapiens) (UniProt Q99835). Nature of the test: Binding affinity to recombinant human Flag-6 x His-tagged Smo expressed in human HEK293T cells assessed as reduction in BODIPY-Cyclopamine binding by measuring fluorescence intensity at 30 uM incubated for 2 to 4 hrs by fluorescence microscopic competitive binding analysis relative to control. Type of test: cell-based. Also noted: scale not given: the % may be the effect or the level left. As to conditions: time 2-4 hrs.

In test [3] the test system is Daoy. Nature of the test: Antiproliferative activity against human DAOY cells assessed as cell viability at 10 to 30 uM incubated for 24 hrs by MTT assay relative to control. Type of test: functional. As to conditions: dose 10-30 µM. (In general: Formazan colour is commonly taken as a measure of viable cells.)
Test [4] addresses Protein smoothened (Homo sapiens) (UniProt Q99835). The test is described as follows: Binding affinity to recombinant human Flag-6 x His-tagged Smo expressed in human HEK293T cells assessed as reduction in BODIPY-Cyclopamine binding by measuring fluorescence intensity incubated for 2 to 4 hrs by fluorescence microscopic based competitive binding analysis. Format: cell-based. As to conditions: dose 3-30 µM, time 2-4 hrs.

Test [5] deals with Daoy. The test is described as follows: Antiproliferative activity against human DAOY cells assessed as cell viability at 30 uM incubated for 24 hrs by MTT assay relative to control. As to conditions: read-out: Activity. Format: functional.
For test [6], the system named is Daoy. Nature of the test: Antiproliferative activity against human DAOY cells assessed as reduction in cell viability incubated for 24 hrs by MTT assay. Format: functional, cell-based.
The target in test [7] is Protein smoothened (Homo sapiens) (UniProt Q99835). The test is described as follows: Binding affinity to recombinant human Flag-6 x His-tagged Smo expressed in human HEK293T cells assessed as reduction in BODIPY-Cyclopamine binding by measuring fluorescence intensity at 3 uM incubated for 2 to 4 hrs by fluorescence microscopic competitive binding analysis relative to control. Type of test: cell-based. Further details: scale not given: the % may be the effect or the level left. As to conditions: time 2-4 hrs.

The test system of test [8] is Daoy. The test is described as follows: Antiproliferative activity against human DAOY cells assessed as cell viability at 0.2 uM incubated for 24 hrs by MTT assay relative to control. As to conditions: read-out: Activity. Type of test: functional.

Protein smoothened (Homo sapiens), sequence (Q99835 whole entry): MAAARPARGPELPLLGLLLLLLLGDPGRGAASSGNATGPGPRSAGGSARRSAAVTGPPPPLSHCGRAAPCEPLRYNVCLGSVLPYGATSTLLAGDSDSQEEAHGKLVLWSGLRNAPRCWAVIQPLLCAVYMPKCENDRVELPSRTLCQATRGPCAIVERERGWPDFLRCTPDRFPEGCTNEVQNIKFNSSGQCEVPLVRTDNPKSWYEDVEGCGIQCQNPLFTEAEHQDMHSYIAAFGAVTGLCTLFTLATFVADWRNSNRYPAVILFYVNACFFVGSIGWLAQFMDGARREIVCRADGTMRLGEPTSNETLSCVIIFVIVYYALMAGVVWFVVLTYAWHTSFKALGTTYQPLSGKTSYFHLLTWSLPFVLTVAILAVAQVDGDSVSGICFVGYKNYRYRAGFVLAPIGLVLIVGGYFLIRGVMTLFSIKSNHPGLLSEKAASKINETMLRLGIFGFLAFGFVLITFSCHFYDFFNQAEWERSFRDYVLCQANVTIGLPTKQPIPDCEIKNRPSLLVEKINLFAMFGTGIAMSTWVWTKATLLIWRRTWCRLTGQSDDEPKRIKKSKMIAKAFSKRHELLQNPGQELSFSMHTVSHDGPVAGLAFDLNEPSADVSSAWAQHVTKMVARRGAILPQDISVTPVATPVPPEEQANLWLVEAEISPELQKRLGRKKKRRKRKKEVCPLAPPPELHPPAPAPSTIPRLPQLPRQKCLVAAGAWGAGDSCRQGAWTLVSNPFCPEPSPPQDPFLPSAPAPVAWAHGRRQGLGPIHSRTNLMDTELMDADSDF

As for `CC[C@H](C)C(=O)O[C@H]1[C@H](O)[C@H]2[C@@H](CN3C[C@@H](C)CC[C@H]3[C@@]2(C)O)[C@@H]2C[C@@]34O[C@]5(O)[C@@H]([C@@H](O)[C@@H](O)[C@H]3[C@@]21O)[C@]4(C)CC[C@@H]5O`, in test [1], half-maximal inhibition (IC50) required 14.3 µM. Besides, the Activity amounted to 69.4% in test [2] and 79.45% in the test on Daoy [3].
For the molecule `C[C@H]1CCC([C@@H](C)[C@H]2CC[C@H]3[C@@H]4CC=C5C[C@@H](O)CC[C@]5(C)[C@H]4CC[C@]23C)=NC1` [VERAZINE], 1.11 µM corresponded to half-maximal inhibition in test [1] (IC50). The values for the Activity result (in test [4]; in test [2]; with Daoy [3]) were “Dose-Dependent Effect”, 47.1% and 79.45%, respectively.
As to `C[C@H]1CC[C@@H]2[C@@H](C)[C@H]3[C@H](C[C@H]4[C@@H]5CC=C6C[C@@H](O[C@@H]7O[C@H](CO)[C@@H](O)[C@H](O)[C@H]7O[C@@H]7O[C@@H](C)[C@H](O)[C@@H](O)[C@H]7O)CC[C@]6(C)[C@H]5CC[C@]34C)N2C1`, the IC50 (usually the midpoint of a concentration-inhibition curve) in test [1] was 0.72 µM; in the test on Daoy [6], 5.35 µM. Moreover, the Activity in test [2] was 45.1%. Besides, the viability at 30 µM in the test on Daoy [5] worked out at 13%. Moreover, in the test on Daoy [6], the inhibition entry was “Dose-Dependent Effect”.
Turning to `C[C@@H]1CCN=C([C@@H](C)[C@H]2CC[C@H]3[C@@H]4CC=C5C[C@@H](O)CC[C@]5(C)[C@H]4CC[C@]23C)C1=O`, in test [1], the IC50 is 5.81 µM. In addition, the Activity entry was “Dose-Dependent Effect” in test [4], 58.7% in test [2] and 79.45% in the test on Daoy [3].
In turn, `CC1=C2C(=O)[C@H]3C(CC=C4C[C@@H](O)CC[C@@]43C)[C@@H]2CC[C@]12O[C@@H]1C[C@H](C)CN[C@H]1[C@H]2C` (stereo not given in full) returned an IC50 in test [1] of 2.35 µM. The figures for the Activity (in test [7]; with Daoy [3]) were 22.3% and 79.45%, respectively.
`C[C@@H]1CCN=C([C@H](C)[C@H]2CC[C@H]3[C@@H]4CC=C5C[C@@H](O)CC[C@]5(C)[C@H]4CC[C@]23C)C1=O` came in with an IC50 in test [1] of 1.62 µM. The Activity result in test [4] was “Dose-Dependent Effect”; in test [2], 54.5%; in the test on Daoy [3], 79.45%.
With `C[C@H]1CC[C@@H]2N(C1)C[C@H]1[C@@H]3C[C@H]4[C@@H](CC=C5C[C@@H](O)CC[C@@]54C)[C@@H]3C[C@H](O)[C@@H]1[C@]2(C)O`, the IC50 in test [1] turned out to be 0.95 µM. Also, the Activity is 42.8% in test [2] and 79.45% in the test on Daoy [3].
In test [1], `CS(=O)(=O)c1ccc(C(=O)Nc2ccc(Cl)c(-c3ccccn3)c2)c(Cl)c1` [VISMODEGIB] yielded an IC50 of 0.07 µM. Further, the viability at 0.2 µM in the test on Daoy [8] was 91.5%.
For the molecule `C[C@H]1CCC([C@H](C)[C@H]2CC[C@H]3[C@@H]4CC=C5C[C@@H](O)CC[C@]5(C)[C@H]4CC[C@]23C)=NC1`, the IC50 in test [1] is 3.26 µM. Moreover, the Activity result in test [4] was “Dose-Dependent Effect”; in test [2], 53.2%; with Daoy [3] it was 79.45%.
For the molecule `C[C@H]1CC[C@@H]([C@@H](C)[C@]2(C)CCC3C2=CCC2C3CC=C3C[C@@H](O[C@@H]4O[C@H](CO)[C@@H](O)[C@H](O)[C@H]4O[C@@H]4O[C@@H](C)[C@H](O)[C@@H](O)[C@H]4O)CC[C@@]32C)NC1` (stereo not given in full), the concentration for half-maximal inhibition (IC50) in test [1] turned out to be 12.3 µM. The values for the Activity (in test [7]; in the test with Daoy [3]) were 53.3% and 79.45%, respectively.

(Values after ChEMBL document CHEMBL4819111, “Steroidal alkaloids isolated from Veratrum grandiflorum Loes. as novel Smoothened inhibitors with anti-proliferation effects on DAOY medulloblastoma cells” (Bioorg Med Chem, 2021).)
